Key:
in vitro = type: cell-based; conditions: African green monkey
Protocol: The antiviral activity of the compounds of the invention was tested against DENV-1 strain TC974#666 (NCPV), DENV-2 strain 16681, DENV-3 strain H87 (NCPV) and DENV-4 strain H241 (NCPV) in a RT-qPCR assay. Therefore, Vero cells were infected with either DENV-1, or -2, or -3, or -4 in the presence or absence of test compounds. At day 3 post-infection, the cells were lysed and cell lysates were used to prepare cDNA of both a viral target (the 3′UTR of DENV; Table 2) and a cellular reference gene (1-actin, Table 2). Subsequently, a duplex real time PCR was performed on a Lightcycler480 instrument. The generated Cp value is inversely proportional to the amount of RNA expression of these targets. Inhibition of DENV replication by a test compound results in a shift of Cp's for the 3′UTR gene. On the other hand, if a test compound is toxic to the cells, a similar effect on 1-actin expression will be observed. […] In addition, CC50 values are determined based on the C, values acquired for the housekeeping gene β-actin. […]
(§1) Using the LightCycler software and an in-house LIMS system, dose response curves for each compound were calculated and the half maximal effective concentration (EC50) and the half maximal cytotoxic concentration (CC50) were determined (Tables 5-8).

DENV-4 strain H241 = assay: Tetravalent RT-qPCR assay, serotype 4; type: cell-based; conditions: Dengue virus, DENV4, 72 h; RT-qPCR serotype 4 H241, Vero cells, day 3
Protocol: (§2) The antiviral activity of the compounds of the invention was tested against DENV-1 strain TC974#666 (NCPV), DENV-2 strain 16681, DENV-3 strain H87 (NCPV) and DENV-4 strain H241 (NCPV) in a RT-qPCR assay. Therefore, Vero cells were infected with either DENV-1, or -2, or -3, or -4 in the presence or absence of test compounds. At day 3 post-infection, the cells were lysed and cell lysates were used to prepare cDNA of both a viral target (the 3′UTR of DENV; Table 2) and a cellular reference gene (1-actin, Table 2). Subsequently, a duplex real time PCR was performed on a Lightcycler480 instrument. The generated Cp value is inversely proportional to the amount of RNA expression of these targets. Inhibition of DENV replication by a test compound results in a shift of Cp's for the 3′UTR gene. On the other hand, if a test compound is toxic to the cells, a similar effect on 1-actin expression will be observed. The comparative ΔΔCp method is used to calculate EC50, which is based on the relative gene expression of the target gene (3′UTR) normalized with the cellular housekeeping gene (1-actin). In addition, CC50 values are determined based on the C, values acquired for the housekeeping gene β-actin.
(§3) The culture medium consisted of minimal essential medium supplemented with 2% of heat-inactivated fetal calf serum, 0.04% gentamycin (50 mg/mL) and 2 mM of L-glutamine. Vero cells, obtained from ECACC, were suspended in culture medium and 75 μL/well was added in 96-well plates (10000 cells/well), which already contain the antiviral compounds. […] In addition, each plate contains wells which are assigned as virus controls (containing cells and virus in the absence of compound) and cell controls (containing cells in the absence of virus and compound). Once the cells were added in the plates, the plates were incubated in a fully humidified incubator (37° C., 5% CO2) until the next day. Dengue viruses serotype-1, 2, 3 and 4 were diluted in order to obtain a Cp of ˜22-24 in the assay. Therefore, 25 μL of virus suspension was added to all the wells containing test compound and to the wells assigned as virus control. In parallel, 25 μL of culture medium was added to the cell controls. Next, the plates were incubated for 3 days in a fully humidified incubator (37° C., 5% CO2). After 3 days, the supernatant was removed from the wells and the cells were washed twice with ice-cold PBS (−100 μL). The cell pellets within the 96-well plates were stored at −80° C. for at least 1 day. Next, RNA was extracted using the Cells-to-CT™ lysis kit, according to the manufacturer's guideline (Life Technologies). The cell lysates can be stored at −80° C. or immediately used in the reverse transcription step.
(§4) In preparation of the reverse transcription step, mix A (table 3A) was prepared and 7.57 μL/well was dispensed in a 96-well plate. After addition of 5 μL of the cell lysates, a five minute denaturation step at 75° C. was performed (table 3B). Afterwards, 7.43 μL of mix B was added (table 3C) and the reverse transcription step was initiated (table 3D) to generate cDNA.
(§5) Finally, a RT-qPCR mix was prepared, mix C (table 4A), and 22.02 μL/well was dispensed in 96-well LightCycler qPCR plates to which 3 μL of cDNA was added and the qPCR was performed according to the conditions in table 4B on a LightCycler 480.
as §1

DENV-3 strain H87 = assay: Tetravalent RT-qPCR assay, serotype 3; type: cell-based; conditions: Dengue virus, DENV3, 72 h; RT-qPCR serotype 3 H87, Vero cells, day 3
Protocol: as §2, §3, §4, §5, §1

DENV-2 strain 16681 = assay: Tetravalent RT-qPCR assay, serotype 2; type: cell-based; conditions: Dengue virus, DENV2, 72 h; RT-qPCR serotype 2 16681, Vero cells, day 3
Protocol: as §2, §3, §4, §5, §1

DENV-2 16681 strain = assay: DENV-2 antiviral assay (eGFP-labeled virus in Vero cells); type: cell-based, Dengue virus; conditions: DENV-2 16681 eGFP, MOI 0.5, 3 days
Protocol: The antiviral activity of all the compounds of the invention was tested against the DENV-2 16681 strain which was labeled with enhanced green fluorescent protein (eGPF). The culture medium consists of minimal essential medium supplemented with 2% of heat-inactivated fetal calf serum, 0.04% gentamycin (50 mg/mL) and 2 mM of L-glutamine. Vero cells, obtained from ECACC, were suspended in culture medium and 25 μL was added to 384-well plates (2500 cells/well), which already contain the antiviral compounds. Typically, these plates contain a 5-fold serial dilution of 9 dilution steps of the test compound at 200 times the final concentration in 100% DMSO (200 nL). […] Finally, each plate contains wells which are assigned as virus controls (containing cells and virus in the absence of compound), cell controls (containing cells in the absence of virus and compound) and medium controls (containing medium in the absence of cells, virus and compounds). To the wells assigned as medium control, 25 μL of culture medium was added instead of Vero cells. Once the cells are added to the plates, the plates were incubated for 30 minutes at room temperature to allow the cells to distribute evenly within the wells. Next, the plates were incubated in a fully humidified incubator (37° C., 5% CO2) until the next day. Then, DENV-2 strain 16681, labeled with eGFP, was added at a multiplicity of infection (MOI) of 0.5.
Therefore, 15 μL of virus suspension was added to all the wells containing test compound and to the wells assigned as virus control. In parallel, 15 μL of culture medium was added to the medium and cell controls. Next, the plates were incubated for 3 days in a fully humidified incubator (37° C., 5% CO2). At the day of the read out, the eGFP fluorescence was measured using an automated fluorescence microscope at 488 nm (blue laser). Using an in-house LIMS system, inhibition dose response curves for each compound were calculated and the half maximal effective concentration (EC50) was determined. Therefore, the percent inhibition (I) for every test concentration is calculated using the following formula: I=100*(ST−SCC)/(SVC−SCC); ST, SCC and SVC are the amount of eGFP signal in the test compound, cell control and virus control wells, respectively. The EC50 represents the concentration of a compound at which the virus replication is inhibited with 50%, as measured by a 50% reduction of the eGFP fluorescent intensity compared to the virus control. The EC50 is calculated using linear interpolation (Table 1).

Vero cells = conditions: African green monkey
DENV-1 strain TC974#666 = assay: Tetravalent RT-qPCR assay, serotype 1; type: cell-based; conditions: Dengue virus, DENV1, 72 h; RT-qPCR serotype 1 TC974#666, Vero cells, day 3
Protocol: as §2, §3, §4, §5, §1

`COc1cc(NC(C(=O)N2CCc3ccc(OC(F)(F)F)cc32)c2ccc(F)cc2OC)cc(OCCCC(=O)O)c1` (single isomer, unassigned) [Compound 6B, 4-(3-((1-(4-fluoro-2-methoxyphenyl)-2-oxo-2-(6-(trifluoromethoxy)indolin-1-yl)ethyl)amino)-5-methoxyphenoxy)butanoic acid] showed a CC50 at 3 days (in vitro) of 13000 nM, an EC50 (DENV-4 strain H241) of 29 nM and an EC50 (DENV-3 strain H87) of 5.6 nM. The EC50 (DENV-2 strain 16681) was 0.41 nM, the EC50 (DENV-2 16681 strain) was 0.39 nM and the CC50 (Vero cells) was 15000 nM. It also gave an EC50 (DENV-1 strain TC974#666) of 0.64 nM.
